Experimental data reported in publication PMC5693942 (Scientific Reports, 2017).
Where “and” joins values, the source holds several entries; their conditions need not be identical. Identical values can stand only once. Entries after “also recorded” stand apart in the source; their conditions may differ.

Key:
Tetrahymena thermophila = experiment: microbe, parasite or virus in culture; assay type: cell-based
Description: The tests were performed in accordance with the protocols provided by the manufacturer. […] The tests were carried out in disposable spectrophotometric cells of 1 cm path-length, to enable the measurement of the optical density (OD) at 440 nm. […] This change in OD over the time period is used to quantify the degree of inhibition and subsequent calculation of the EC50. Each concentration was repeated in duplicate.

[1] = River water simulating microcosms (degradation of FL); details: for removal of FL: river water
P. promelas = details: ref [34]; cited from earlier work
Daphnia magna = Daphnia magna acute 48 h immobilization assay (Daphtoxkit); assay type: in vivo; details: 48 h;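 note: test concentrations in mg per L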
Description: Six concentration levels (5 concentrations plus control, four replicate beakers for each concentrations, five individual for each beaker) were tested. […] Each experiment was repeated in triplicate.

D. magna = details: ref [34]; cited from earlier work
[2] = Activated sludge simulating microcosms (degradation of FL, formation of NFL); assay type: physicochemical; details: for transformation / removal: 24 h
Description: Activated sludge microcosm experiments were conducted in the dark and aerobic conditions. Three microcosm bioreactors were investigated in duplicate. They were filled with 2 L of fresh activated sludge collected from a local wastewater treatment plant. […] Dark conditions were simulated by covering up the flask with foil. Aerobic conditions were obtained using air from BOC air cylinder and a thorough mixing was maintained using magnetic stirrers. The experiment was 24 hours long. […] Collected samples were subsequently frozen until their analysis to prevent degradation of compounds.
The compounds studied are characterized as having low volatility and therefore volatilization was not considered as a potential removal pathway in studied microcosms. Photodegradation was also not considered (not relevant) under tested activated sludge conditions. Therefore the two important degradation mechanisms to consider were biodegradation and sorption to sludge. […] However, in this study, sorption equilibrium was assumed and therefore sorption could be considered negligible. This is because sorption is assumed to be fast when compared to biological degradation.
Several reports utilized pseudo-first-order kinetics for degradation of micropollutants in activated sludge reactors[48]–[50]. […] Pseudo-first order biodegradation rate k1 [L g^−1h^−1]

[3] = ref [3], cited from earlier work
[4] = dark biotic conditions (DBR), 1 µg L^−1 racemic FL, 16 days
[5] = light abiotic conditions (LAR), 1 µg L^−1 racemic FL, 16 days
[6] = light biotic reactor (LBR), 1 µg L^−1 racemic FL, 16 days
[7] = 100 µg L^−1, pseudo-first order
[8] = 10 µg L^−1 microcosm, first 30 minutes

CNCC[C@@H](Oc1ccc(C(F)(F)F)cc1)c1ccccc1 [(R)-FL, (R)-N-Methyl-3-(4-trifluoromethylphenoxy)-3-phenylpropylamine]
times more toxic than (S)-FL (Tetrahymena thermophila; Tetrahymena thermophila): 30 ×
% I (percentage inhibition) (Tetrahymena thermophila; definitive test, conc. 0.086): -8.032%
% I (percentage inhibition) (Tetrahymena thermophila; definitive test, conc. 24.098): 91.516%
% I (percentage inhibition) (Tetrahymena thermophila; definitive test, conc. 79.522): 90.724%
% I (percentage inhibition) (Tetrahymena thermophila; range test, conc. 0.005): -3.105%
% I (percentage inhibition) (Tetrahymena thermophila; range test, conc. 0.050): 5.433%
% I (percentage inhibition) (Tetrahymena thermophila; range test, conc. 0.500): -1.164%
% I (percentage inhibition) (Tetrahymena thermophila; range test, conc. 5.000): 39.974%
removal of FL [1, 4]: 67.9%
removal of FL [1, 5]: 79.2%
removal of FL [1, 6]: 96.7%
LOEC7d -feeding (P. promelas): 0.17 mg/L
LOEC7d -growth (P. promelas): 0.17 mg/L
LOEC7d -survival (P. promelas): 0.17 mg/L
Average effect (N immobile, 5 daphnids per replicate) (Daphnia magna; concentration 0.5): 0
Average effect (N immobile, 5 daphnids per replicate) (Daphnia magna; concentration 1.5): 0.25
Average effect (N immobile, 5 daphnids per replicate) (Daphnia magna; concentration 5): 3.25
Average effect (N immobile, 5 daphnids per replicate) (Daphnia magna; concentration 16): 5
Average effect (N immobile, 5 daphnids per replicate) (Daphnia magna; concentration 50): 5
LOEC21d -grazing (D. magna): none
LOEC21d -immobilization (D. magna): 0.43 mg/L
LOEC21d -reproduction (D. magna): 0.43 mg/L
degradation ([2]; 10 µg L^−1): lack of degradation; also recorded: No degradation
kbiol ([2]; 100 µg L^−1): 0.01 LgSS ^−1h^−1
t1/2biol ([2]; 100 µg L^−1): 68 h and 68.0 h
k1 [2, 7]: 0.02 h⁻¹
transformation / removal ([2]; 100 µg L^−1 microcosm): 38%

CNCCC(Oc1ccc(C(F)(F)F)cc1)c1ccccc1 (stereo not drawn) [FL, Fluoxetine, reference compound]
excreted in the urine as this species ([3]; after FL): 11.6%
excreted in the feces [3]: approximately 15%
excreted in the urine [3]: 80%
EF ([1]; DAR (dark abiotic), day 1): 0.499
EF ([1]; DAR (dark abiotic), day 2): 0.502
EF ([1]; DAR (dark abiotic), day 3): 0.504
EF ([1]; DAR (dark abiotic), day 4): 0.507
EF ([1]; DAR (dark abiotic), day 9): 0.497
EF ([1]; DAR (dark abiotic), day 10): 0.505
EF ([1]; DAR (dark abiotic), day 11): 0.526
EF ([1]; DAR (dark abiotic), day 15): 0.497
EF ([1]; DBR (dark biotic), day 1): 0.506
EF ([1]; DBR (dark biotic), day 2): 0.468
EF ([1]; DBR (dark biotic), day 3): 0.496
EF ([1]; DBR (dark biotic), day 4): 0.503
EF ([1]; DBR (dark biotic), day 5): 0.495
EF ([1]; DBR (dark biotic), day 8): 0.441
EF ([1]; DBR (dark biotic), day 9): 0.499
EF ([1]; DBR (dark biotic), day 10): 0.507
EF ([1]; DBR (dark biotic), day 11): 0.495
EF ([1]; DBR (dark biotic), day 12): 0.490
EF ([1]; DBR (dark biotic), day 15): 0.538
EF ([1]; DBR (dark biotic), day 16): 0.554
EF ([1]; LAR (light abiotic), day 1): 0.497
EF ([1]; LAR (light abiotic), day 2): 0.488
EF ([1]; LAR (light abiotic), day 3): 0.491
EF ([1]; LAR (light abiotic), day 4): 0.498
EF ([1]; LAR (light abiotic), day 5): 0.511
EF ([1]; LAR (light abiotic), day 8): 0.508
EF ([1]; LAR (light abiotic), day 9): 0.513
EF ([1]; LAR (light abiotic), day 10): 0.511
EF ([1]; LAR (light abiotic), day 11): 0.512
EF ([1]; LAR (light abiotic), day 12): 0.487
EF ([1]; LAR (light abiotic), day 15): 0.531
EF ([1]; LAR (light abiotic), day 16): 0.535
EF ([1]; LBR (light biotic), day 1): 0.493
EF ([1]; LBR (light biotic), day 2): 0.493
EF ([1]; LBR (light biotic), day 3): 0.498
EF ([1]; LBR (light biotic), day 4): 0.502
EF ([1]; LBR (light biotic), day 5): 0.508
EF ([1]; LBR (light biotic), day 8): 0.537
EF ([1]; LBR (light biotic), day 9): 0.512
EF ([1]; LBR (light biotic), day 10): 0.497
EF ([1]; LBR (light biotic), day 11): 0.498
EF ([1]; LBR (light biotic), day 12): 0.491
EF ([1]; LBR (light biotic), day 15): 0.525
EF ([1]; LBR (light biotic), day 16): 0.467
removal of FL ([1]; dark abiotic conditions (DAR)): did not lead to any significant removal
EF ([2]; 10 µg L-1 microcosm, time 0): 0.484
EF ([2]; 10 µg L-1 microcosm, time 0.5): 0.504
EF ([2]; 10 µg L-1 microcosm, time 1): 0.347
EF ([2]; 10 µg L-1 microcosm, time 1.5): 0.499
EF ([2]; 10 µg L-1 microcosm, time 2): 0.480
EF ([2]; 10 µg L-1 microcosm, time 3): 0.499
EF ([2]; 10 µg L-1 microcosm, time 5): 0.429
EF ([2]; 10 µg L-1 microcosm, time 8): 0.461
EF ([2]; 10 µg L-1 microcosm, time 12): 0.263
EF ([2]; 10 µg L-1 microcosm, time 24): 0.260
lag phase ([2]; 10 µg L^−1 FL bioreactor): 3 h
degradation (rapid removal from aqueous phase) [2, 8]: 50%
enantiomeric fraction (EF) [2, 8]: 0.5
enantiomeric fraction (EF) ([2]; 10 µg L^−1 reactor, after further slow removal): < 0.3
EF ([2]; 100 µg L-1 microcosm, time 0): 0.531
EF ([2]; 100 µg L-1 microcosm, time 0.5): 0.519
EF ([2]; 100 µg L-1 microcosm, time 1): 0.515
EF ([2]; 100 µg L-1 microcosm, time 1.5): 0.516
EF ([2]; 100 µg L-1 microcosm, time 2): 0.511
EF ([2]; 100 µg L-1 microcosm, time 3): 0.477
EF ([2]; 100 µg L-1 microcosm, time 5): 0.431
EF ([2]; 100 µg L-1 microcosm, time 8): 0.410
EF ([2]; 100 µg L-1 microcosm, time 12): 0.326
EF ([2]; 100 µg L-1 microcosm, time 24): 0.257
lag phase ([2]; 100 µg L^−1 FL bioreactor): 2 h
enantiomeric fraction (EF) ([2]; 100 µg L^−1 microcosm): < 0.3
transformation / removal ([2]; 100 µg L^−1 microcosm): 60%

CNCC[C@H](Oc1ccc(C(F)(F)F)cc1)c1ccccc1 [(S)-FL]
% I (percentage inhibition) (Tetrahymena thermophila; definitive test, conc. 0.104): -1.720%
% I (percentage inhibition) (Tetrahymena thermophila; definitive test, conc. 0.313): 4.194%
% I (percentage inhibition) (Tetrahymena thermophila; definitive test, conc. 0.535): 0.108%
% I (percentage inhibition) (Tetrahymena thermophila; definitive test, conc. 10.446): 7.204%
% I (percentage inhibition) (Tetrahymena thermophila; definitive test, conc. 20.892): 22.366%
% I (percentage inhibition) (Tetrahymena thermophila; definitive test, conc. 68.945): 73.441%
% I (percentage inhibition) (Tetrahymena thermophila; definitive test, conc. 104.462): 83.118%
% I (percentage inhibition) (Tetrahymena thermophila; range test, conc. 0.005): 22.617%
% I (percentage inhibition) (Tetrahymena thermophila; range test, conc. 0.050): 21.857%
% I (percentage inhibition) (Tetrahymena thermophila; range test, conc. 0.500): 26.510%
% I (percentage inhibition) (Tetrahymena thermophila; range test, conc. 5.000): 26.130%
% I (percentage inhibition) (Tetrahymena thermophila; range test, conc. 50.000): 57.653%
removal of FL [1, 4]: 60.4%
removal of FL [1, 5]: 74.5%
removal of FL [1, 6]: 98.4%
LOEC7d -feeding (P. promelas): 0.05 mg/L
LOEC7d -growth (P. promelas): 0.05 mg/L
LOEC7d -survival (P. promelas): 0.10 mg/L
Average effect (N immobile, 5 daphnids per replicate) (Daphnia magna; concentration 0.5): 0.25
Average effect (N immobile, 5 daphnids per replicate) (Daphnia magna; concentration 1.5): 1
Average effect (N immobile, 5 daphnids per replicate) (Daphnia magna; concentration 5): 3.25
Average effect (N immobile, 5 daphnids per replicate) (Daphnia magna; concentration 16): 5
Average effect (N immobile, 5 daphnids per replicate) (Daphnia magna; concentration 50): 5
LOEC21d -grazing (D. magna): 0.20 mg/L
LOEC21d -immobilization (D. magna): 0.44 mg/L
LOEC21d -reproduction (D. magna): 0.44 mg/L
kbiol ([2]; 10 µg L^−1): 0.04 LgSS ^−1h^−1
t1/2biol ([2]; 10 µg L^−1): 19 h and 18.9 h
k1 ([2]; 10 µg L^−1, pseudo-first order): 0.07 h⁻¹
kbiol ([2]; 100 µg L^−1): 0.04 LgSS ^−1h^−1
t1/2biol ([2]; 100 µg L^−1): 19 h and 19.4 h
k1 [2, 7]: 0.07 h⁻¹
transformation / removal ([2]; 100 µg L^−1 microcosm): 80%
